The subject of data set [1] is 293T-ACE2^+ cells. The experiment in a line: Cytotoxicity by CCK-8 in 293T-ACE2^+ cells. Format: cell-based, human. Particulars: 1 nM to 100 μM, 48 h; FIGS. 9A-9C, 10A-10C. How it is done: ; • (3) The cells were washed once with PBS after discarding supernatant after culturing, 120 μL of cell counting kit-8 (CCK-8) working solution (CCK-8 working solution is obtained by mixing CCK8 stock solution and complete medium in a volume ratio of 1:10, CCK8 stock solution was purchased from Dojindo Molecular Technologies) was added to each well. After mixing, the system was incubated at 37° C. for 3 h, then the absorbance values at 450 nm and 630 nm (reference wavelength) were detected to calculate the cell viability.

Data set [2] addresses spike protein of the SARS-CoV-2 pseudovirus (PSV) (SARS-CoV-2), P0DTC2. The experiment in a line: cell-based or functional assay.

Ends that are not written are not given here. Peptide text beside a SMILES is read from it.

GDLFDDSNLDPFRDRISTRR [KVp-R14N]: the “effect on 293T-ACE2^+ cells viability (CCK-8)” value (“effect” below) in data set [1] is “not significant”.

Turning to GDGVYYPRDVFDSSVLDSTQR [KVp-N1N], the “effect” value in data set [1] is “not significant”.

Turning to `CC(C)C[C@H](NC(=O)[C@@H](NC(=O)[C@H](CO)NC(=O)[C@H](CO)NC(=O)[C@H](CC(=O)O)NC(=O)[C@H](Cc1ccccc1)NC(=O)[C@@H](NC(=O)[C@H](CC(=O)O)NC(=O)[C@H](CCCNC(=N)N)NC(=O)[C@@H]1CCCN1C(=O)[C@H](Cc1ccc(O)cc1)NC(=O)[C@H](Cc1ccc(O)cc1)NC(=O)[C@@H](NC(=O)CNC(=O)[C@H](CC(=O)O)NC(=O)CNC(=O)[C@@H]1CCCN1C(=O)[C@@H]1CCCN1C(=O)[C@@H]1CCCN1C(=O)[C@@H]1CCCN1C(=O)[C@H](CS)NC(=O)[C@@H](N)CS)C(C)C)C(C)C)C(C)C)C(=O)N[C@@H](CC(=O)O)C(=O)N[C@@H](CO)C(=O)N[C@H](C(=O)N[C@@H](CCC(N)=O)C(=O)N[C@@H](CCCNC(=N)N)C(=O)O)[C@@H](C)O` [KVp-N1] (H-CCPPPPGDGVYYPRDVFDSSVLDSTQR-OH), the “effect” value in data set [1] is “not significant”.

Consider `CC[C@H](C)[C@H](NC(=O)[C@H](CCCNC(=N)N)NC(=O)[C@H](CC(=O)O)NC(=O)[C@H](CCCNC(=N)N)NC(=O)[C@H](Cc1ccccc1)NC(=O)[C@@H]1CCCN1C(=O)[C@H](CC(=O)O)NC(=O)[C@H](CC(C)C)NC(=O)[C@H](CC(N)=O)NC(=O)[C@H](CO)NC(=O)[C@H](CC(=O)O)NC(=O)[C@H](CC(=O)O)NC(=O)[C@H](Cc1ccccc1)NC(=O)[C@H](CC(C)C)NC(=O)[C@H](CC(=O)O)NC(=O)CNC(=O)[C@@H]1CCCN1C(=O)[C@@H]1CCCN1C(=O)[C@@H]1CCCN1C(=O)[C@@H]1CCCN1C(=O)[C@H](CS)NC(=O)[C@@H](N)CS)C(=O)N[C@@H](CO)C(=O)N[C@H](C(=O)N[C@@H](CCCNC(=N)N)C(=O)N[C@@H](CCCNC(=N)N)C(=O)O)[C@@H](C)O` [KVp-R14] (H-CCPPPPGDLFDDSNLDPFRDRISTRR-OH), for which, in data set [1], the “effect” value is recorded as “not significant”.

B1: polypeptide KVp-R14 (peptide)
peptide: CCPPPPGDLFDDSNLDPFRDRISTRR
modifications: not checked
In the case of B1, the neutralization ability to SARS-CoV-2 pseudovirus in data set [2] is 50%.

B2: polypeptide KVp-N1 (peptide)
peptide: CCPPPPGDGVYYPRDVFDSSVLDSTQR
modifications: not checked
In data set [2], B2 registered a neutralization ability to SARS-CoV-2 pseudovirus of 50%.

For the origin of these results see patent US20260234196A1 (priority 2021, published 2026).
